Data published in patent EP0700399B1, “36-DERIVATIVES OF RIFAMYCINS AND THEIR USE AS ANTIMICROBIAL AGENTS” (GRUPPO LEPETIT S.P.A., priority 1993, dated 1994).
Where two headings read alike, the source gives them in different places.

How the values were obtained:
Escherichia coli = test: MIC by broth microdilution; type: cell-based; details: internal code L47; for MIC: Escherichia coli, read-out: MIC of the compounds
[1] = test system: Haemoph. influenzae ATCC 19418; test: MIC by broth microdilution; type: cell-based, Haemophilus influenzae; details: internal code L970, 5% carbon dioxide, 48 hours; for MIC: Haemophilus influenzae, ATCC19418, read-out: MIC of the compounds
[2] = test system: Pseudomonas aerug. ATCC10145; test: MIC by broth microdilution; type: cell-based, Pseudomonas aeruginosa; details: internal code L4; for MIC: Pseudomonas, ATCC10145, read-out: MIC of the compounds
[3] = test system: Propionibact. acnes ATCC 6919; test: MIC by broth microdilution; type: cell-based, Propionibacterium acnes; details: internal code L1014, anaerobic, 48 hours; for MIC: Cutibacterium acnes, ATCC6919, read-out: MIC of the compounds
[4] = test system: Esch. coli K12 hyperpermeable; test: MIC by broth microdilution; type: cell-based, Escherichia coli; details: internal code G1640; hyperpermeable
[5] = test system: Esch. coli K12 rifa-r^(1); test: MIC by broth microdilution; type: cell-based, Escherichia coli; details: internal code G1064; rifampicin resistant strain, moderately resistant
[6] = test system: Proteus vulgaris ATCC 881; test: MIC by broth microdilution; type: cell-based; details: internal code L79; for MIC: Proteus vulgaris, ATCC881, read-out: MIC of the compounds
Streptococcus pyogenes = test: MIC by broth microdilution; type: cell-based; details: internal code L49; for MIC: Streptococcus pyogenes, read-out: MIC of the compounds
[7] = test system: Staph. epidermidis ATCC 12228; test: MIC by broth microdilution; type: cell-based; details: internal code L147; for MIC: Staphylococcus epidermidis, ATCC12228, read-out: MIC of the compounds
Staph. aureus rifa-r^(2) = test: MIC by broth microdilution; type: cell-based; details: for MIC of the compounds: internal code L1282, rifampicin resistant strain, highly resistant; for MIC: Staphylococcus aureus, read-out: MIC of the compounds
Strept. pneumoniae = test: MIC by broth microdilution; type: cell-based; details: internal code L44; for MIC: Streptococcus pneumoniae, read-out: MIC of the compounds
[8] = test system: Bacteroides fragilis ATCC 23745; test: MIC by broth microdilution; type: cell-based; details: internal code L1010, anaerobic, 48 hours
Staphylococcus aureus = test: MIC by broth microdilution; type: cell-based; details: internal code L165; for MIC: Staphylococcus aureus, read-out: MIC of the compounds
[9] = test system: Enterococc. faecalis ATCC 7080; test: MIC by broth microdilution; type: cell-based, Enterococcus faecalis; details: internal code L149; for MIC: Enterococcus faecalis, ATCC7080, read-out: MIC of the compounds
Staph. aureus rifa-r^(1) = test: MIC by broth microdilution; type: cell-based; details: for MIC of the compounds: internal code L721, rifampicin resistant strain, moderately resistant; for MIC: Staphylococcus aureus, read-out: MIC of the compounds
[10] = test system: Staph. haemolyticus rifa-r^(2); test: MIC by broth microdilution; type: cell-based; details: for MIC of the compounds: internal code L602, rifampicin resistant strain, highly resistant; for MIC: Staphylococcus haemolyticus, read-out: MIC of the compounds
Neisseria gonorrhoeae = test: MIC by broth microdilution; type: cell-based; details: internal code L997, 5% carbon dioxide, 48 hours; for MIC: Neisseria gonorrhoeae, read-out: MIC of the compounds
[11] = test system: Staphylococcus aureus Smith (Int. code L 819); test: Experimental septicemia in mice; type: in vivo; details: Staphylococcus aureus, 168 h, treated once immediately after infection, survival on the 7th day
Protocol: Some compounds of the invention were also tested in experimental septicemia in mice infected with Staphylococcus aureus Smith (Int. code L 819). For this purpose, groups of five mice were infected intraperitoneally with about 1 x 10^6 CFU of S. aureus Smith suspended in 0.5 ml of Difco bacteriological mucin. Untreated animals died within 48 hours. The other animals were treated once immediately after infection. On the 7th day the value of ED50 (expressed in mg/kg) was calculated by the method of Spearman-[…]., Statistical method in biological assay, page 254, C. Griffin Ltd., London, 1952), on the basis of the percentage of animals surviving at each dose.

[12] = test system: Bacteroides fragilis ATCC 25285; test: MIC by broth microdilution; type: cell-based; details: internal code L1011, anaerobic, 48 hours; for MIC: Bacteroides fragilis, ATCC25285, read-out: MIC of the compounds
Staph. aureus Smith = test: MIC by broth microdilution; type: cell-based; details: internal code L819; for MIC: Staphylococcus aureus, read-out: MIC of the compounds
[13] = intravenous, read-out: ED50 IV route
[14] = sc, subcutaneous, read-out: ED50 SC route

Row | Compound | MIC (Escherichia coli) | MIC [1] | MIC [2] | MIC [3] | ED50 [11, 13] | ED50 [11, 14] | MIC [6] | MIC (Streptococcus pyogenes) | MIC [7] | MIC (Staph. aureus rifa-r^(2)) | MIC (Strept. pneumoniae) | MIC (Staphylococcus aureus) | MIC [9] | MIC [12] | MIC (Staph. aureus Smith) | MIC (Staph. aureus rifa-r^(1)) | MIC [10] | MIC (Neisseria gonorrhoeae) | further results
1 | 36-Bromo-2'-(diethylamino)rifamycin P [Compound C9] | – | – | – | – | – | – | – | – | – | – | – | – | – | – | – | – | – | – | MIC of the compounds (Escherichia coli): 16 µg/mL; MIC of the compounds [1]: 0.25 µg/mL; MIC of the compounds [2]: 16 µg/mL; MIC of the compounds [3]: 0.06 µg/mL; MIC of the compounds [4]: 2 µg/mL; MIC of the compounds [5]: > 128 µg/mL; MIC of the compounds [6]: 32 µg/mL; MIC of the compounds (Streptococcus pyogenes): 0.13 µg/mL; MIC of the compounds [7]: 0.06 µg/mL; MIC of the compounds (Staph. aureus rifa-r^(2)): > 128 µg/mL; MIC of the compounds (Strept. pneumoniae): 0.13 µg/mL; MIC of the compounds [8]: 0.13 µg/mL; MIC of the compounds (Staphylococcus aureus): 0.06 µg/mL; MIC of the compounds [9]: 2 µg/mL; MIC of the compounds (Staph. aureus rifa-r^(1)): 8 µg/mL; MIC of the compounds [10]: ≥ 128 µg/mL; MIC of the compounds (Neisseria gonorrhoeae): 0.5 µg/mL
2 | CCn1cc(C(=O)OCC(=O)O[C@H]2[C@H](C)[C@H](O)[C@H](C)[C@@H](O)[C@@H](C)/C=C/C=C(/C)C(=O)Nc3c(C=NN4CCN(C)CC4)c(O)c4c5c(c(C)c(O)c4c3O)O[C@](C)(O/C=C/[C@H](OC)[C@H]2C)C5=O)c(=O)cc1N1CCN(C)CC1 [Compound C30, 36-{[1-Ethyl-1,4-dihydro-6-(4-methyl-1-piperazinyl)-4-oxo-3-pyridinyl]carbonyloxy]-3-{[(4-methyl-1-piperazinyl)imino]methyl}rifamycin SV] | 16 µg/mL | 1 µg/mL | 32 µg/mL | 0.03 µg/mL | 0.72 mg/kg | 1.6 mg/kg | 16 µg/mL | 0.016 µg/mL | 0.016 µg/mL | 1 µg/mL | 0.008 µg/mL | 0.016 µg/mL | 0.25 µg/mL | 0.06 µg/mL | 0.016 µg/mL | 0.5 µg/mL | 4 µg/mL | 0.13 µg/mL | –
3 | CCn1cc(C(=O)OCC(=O)O[C@H]2[C@H](C)[C@H](O)[C@H](C)[C@@H](O)[C@@H](C)/C=C/C=C(/C)C(=O)NC3=CC(=O)c4c(c(O)c(C)c5c4C(=O)[C@@](C)(O/C=C/[C@H](OC)[C@H]2C)O5)C3=O)c(=O)c2cc(F)c(N3CCN(C)CC3)cc21 [Compound C23, 36-{2-[1-Ethyl-6-fluoro-1,4-dihydro-7-(4-methyl-1-piperazinyl)-4-oxo-3-quinolinyl]carbonyloxy} rifamycin S] | 128 µg/mL | 2 µg/mL | > 128 µg/mL | 2 µg/mL | – | 32.9 mg/kg | 128 µg/mL | 0.004 µg/mL | 0.06 µg/mL | 1 µg/mL | 0.004 µg/mL | 0.06 µg/mL | 0.13 µg/mL | – | – | 0.06 µg/mL | 4 µg/mL | 8 µg/mL | MIC ([8]; Bacteroides fragilis, ATCC23745, read-out: MIC of the compounds): 8 µg/mL
4 | CCn1cc(C(=O)OCC(=O)O[C@H]2[C@H](C)[C@H](O)[C@H](C)[C@@H](O)[C@@H](C)/C=C/C=C(/C)C(=O)Nc3c(C=NN4CCN(C)CC4)c(O)c4c5c(c(C)c(O)c4c3O)O[C@](C)(O/C=C/[C@H](OC)[C@H]2C)C5=O)c(=O)c2cc(F)c(N3CCN(C)CC3)cc21 [Compound C25, 36-{[1-Ethyl-6-fluoro-1,4-dihydro-7-(4-methyl-1-piperazinyl)-4-oxo-3-quinolinyl]carbonyloxy}-3-{[(4-methyl-1-piperazinyl)imino]methyl}rifamycin SV] | 64 µg/mL | 1 µg/mL | 128 µg/mL | – | 2.9 mg/kg | 4.7 mg/kg | 64 µg/mL | 0.03 µg/mL | 0.13 µg/mL | 1 µg/mL | 0.016 µg/mL | 0.06 µg/mL | 2 µg/mL | 2 µg/mL | 0.06 µg/mL | 0.13 µg/mL | 1 µg/mL | 0.5 µg/mL | –
5 | CCn1cc(C(=O)OCC(=O)O[C@H]2[C@H](C)[C@H](O)[C@H](C)[C@@H](O)[C@@H](C)/C=C/C=C(/C)C(=O)Nc3c(C=NN4CCN(C)CC4)c(O)c4c5c(c(C)c(O)c4c3O)O[C@](C)(O/C=C/[C@H](OC)[C@H]2C)C5=O)c(=O)c2cnc(N3CCN(C)CC3)nc21 [Compound C28] | 64 µg/mL | 2 µg/mL | 128 µg/mL | 0.06 µg/mL | – | – | 64 µg/mL | 0.016 µg/mL | 0.06 µg/mL | 2 µg/mL | 0.008 µg/mL | 0.06 µg/mL | 8 µg/mL | 1 µg/mL | 0.06 µg/mL | 0.13 µg/mL | 4 µg/mL | 0.25 µg/mL | –
6 | CO[C@H]1/C=C/O[C@@]2(C)Oc3c(C)c(O)c4c(O)c(c(C=NN5CCN(C)CC5)c(O)c4c3C2=O)NC(=O)/C(C)=C\C=C\[C@H](C)[C@H](O)[C@@H](C)[C@@H](O)[C@@H](C)[C@H](OC(=O)COC(=O)c2cn(C3CC3)c3cc(-c4cc(C)nc(C)c4)c(F)cc3c2=O)[C@@H]1C [Compound C29, 36-{[1-Cyclopropyl-6-fluoro-1,4-dihydre-7-(2,6-dimethyl-4-pyridinyl)-4-oxo-3-quinolinyl]-carbonyloxy}-3-{[(4-methyl-1-piperazinyl)imino]-methyl}rifamycin SV] | 16 µg/mL | 0.25 µg/mL | > 128 µg/mL | 0.06 µg/mL | – | – | 128 µg/mL | 0.016 µg/mL | 0.03 µg/mL | 2 µg/mL | 0.016 µg/mL | 0.03 µg/mL | 2 µg/mL | 0.13 µg/mL | 0.03 µg/mL | 0.5 µg/mL | 8 µg/mL | 0.25 µg/mL | –
7 | 36-{[1-Ethyl-1,4-dihydro-1-methyl-4-oxo-1,8-naphthyridin-3-yl)carbonyloxy}-3-{[(4-methyl-1-piperazinyl)imino]methyl}rifamycin SV [Compound C27] | – | – | – | – | – | – | – | – | – | – | – | – | – | – | – | – | – | – | MIC of the compounds (Escherichia coli): 32 µg/mL; MIC of the compounds [1]: 0.25 µg/mL; MIC of the compounds [2]: 32 µg/mL; MIC of the compounds [3]: 0.03 µg/mL; MIC of the compounds [6]: 16 µg/mL; MIC of the compounds (Streptococcus pyogenes): 0.008 µg/mL; MIC of the compounds [7]: 0.016 µg/mL; MIC of the compounds (Staph. aureus rifa-r^(2)): 16 µg/mL; MIC of the compounds (Strept. pneumoniae): 0.008 µg/mL; MIC of the compounds (Staphylococcus aureus): 0.03 µg/mL; MIC of the compounds [9]: 2 µg/mL; MIC of the compounds [12]: 0.13 µg/mL; MIC of the compounds (Staph. aureus Smith): 0.016 µg/mL; MIC of the compounds (Staph. aureus rifa-r^(1)): 0.25 µg/mL; MIC of the compounds [10]: 16 µg/mL; MIC of the compounds (Neisseria gonorrhoeae): 0.13 µg/mL
8 | CCn1cc(C(=O)OCC(=O)O[C@H]2[C@H](C)[C@H](O)[C@H](C)[C@@H](O)[C@@H](C)/C=C/C=C(/C)C(=O)Nc3c(C=NN4CCN(C5CCCC5)CC4)c(O)c4c5c(c(C)c(O)c4c3O)O[C@](C)(O/C=C/[C@H](OC)[C@H]2C)C5=O)c(=O)c2cc(F)c(N3CCN(C)CC3)cc21 [Compound C26, 3-[[(4-Cyclopentyl-1-piperazinyl)-imino]methyl}-36-{[1-ethyl-6-fluoro-1,4-dihydro-7-(4-methyl-1-piperazinyl)-4-oxo-3-quinolinyl]carbonyloxy}-rifamycin SV] | 2 µg/mL | 1 µg/mL | 32 µg/mL | 0.13 µg/mL | 0.95 mg/kg | 1.6 mg/kg | 2 µg/mL | 0.03 µg/mL | 0.06 µg/mL | 2 µg/mL | 0.03 µg/mL | 0.06 µg/mL | 4 µg/mL | 1 µg/mL | 0.13 µg/mL | 0.13 µg/mL | 0.5 µg/mL | 0.13 µg/mL | –
